Measured values taken from ChEMBL document CHEMBL3797065, “Kaurane and abietane diterpenoids from the roots of Tripterygium wilfordii and their cytotoxic evaluation” (Bioorg Med Chem Lett, 2016).

Experiments:
[1] = system: HepG2; assay: Cytotoxicity against human HepG2 cells after 48 hrs by MTT assay; type: functional, cell-based; conditions: HepG2, 48 h
[2] = Cytotoxicity against human Hep3B cells after 48 hrs by MTT assay; type: functional, cell-based, Hep 3B2
[3] = system: Bcap37; assay: Cytotoxicity against human Bcap37 cells after 48 hrs by MTT assay; type: functional, cell-based; conditions: Bcap37, 48 h
[4] = system: U-251; assay: Cytotoxicity against human U251 cells after 48 hrs by MTT assay; type: functional, cell-based; conditions: U-251, 48 h
[5] = system: MCF7; assay: Cytotoxicity against human MCF7 cells after 48 hrs by MTT assay; type: functional, cell-based; conditions: MCF7, 48 h
[6] = system: A549; assay: Cytotoxicity against human A549 cells after 48 hrs by MTT assay; type: functional, cell-based; conditions: A549, 48 h

SMILES | IC50 [1] | IC50 [2] | IC50 [3] | IC50 [4] | IC50 [5] | IC50 [6]
C[C@@]1(O)C[C@@]23CC[C@H]4[C@@]5(CCC[C@]4(C)C(=O)OC5)[C@]2(O)CC[C@H]1C3 | > 100 µM | > 100 µM | > 100 µM | > 100 µM | > 100 µM | > 100 µM
O=c1[nH]cc(F)c(=O)[nH]1 [FLUOROURACIL] | – | 17.5 µM | 15.5 µM | 24.7 µM | – | 21.6 µM
CC1=C(C(=O)O)CC[C@]2(C)C3=C(CC[C@@H]12)C(=O)C(C(C)C)=CC3=O | > 100 µM | > 100 µM | > 100 µM | > 100 µM | > 100 µM | > 100 µM
CC(C)C1=CC(=O)C2=C(CC[C@H]3[C@@](C)(CO)C(=O)CC[C@]23C)C1=O | 26.3 µM | 26 µM | 13.3 µM | > 100 µM | 16.7 µM | 19.9 µM
C[C@@]12CCC[C@]3(C(=O)OC1)[C@@H]2CC[C@@]12C[C@H](CC[C@H]13)[C@](C)(O)C2 | 97.1 µM | > 100 µM | > 100 µM | > 100 µM | > 100 µM | > 100 µM
CC(C)c1ccc2c(c1)C(=O)C[C@H]1[C@@](C)(CO)C(=O)CC[C@]21C [TRIPTOBENZENE N] | 43.7 µM | > 100 µM | > 100 µM | > 100 µM | > 100 µM | 32.8 µM
COc1c(C(C)C)cc(O)c2c1CC[C@H]1C(C)=C(C(=O)O)CC[C@]21C | > 100 µM | > 100 µM | > 100 µM | > 100 µM | > 100 µM | > 100 µM
CO[C@@H]1OC[C@@]23CCC[C@@]1(C)[C@@H]2CC[C@@]12C[C@@H](CC[C@H]13)[C@](C)(O)C2 (relative stereo) | 28.5 µM | 48.9 µM | 11.6 µM | 13.5 µM | > 100 µM | 39.3 µM
COc1cc2c(c(O)c1C(C)C)CC[C@H]1C(C)=C(C(=O)O)CC[C@]21C | 42.5 µM | 29.7 µM | 37.6 µM | > 100 µM | > 100 µM | > 100 µM
CC(C)c1ccc2c(c1)CC[C@H]1[C@@](C)(CO)C(=O)CC[C@]21C | 32.7 µM | > 100 µM | > 100 µM | > 100 µM | > 100 µM | 39 µM
CC(C)c1ccc2c(c1O)CC[C@H]1[C@@](C)(CO)[C@@H](O)CC[C@]21C | 36.3 µM | 48.7 µM | > 100 µM | > 100 µM | 23.8 µM | 30.1 µM
CC(C)C1=CC(=O)C2=C(CC[C@H]3[C@@](C)(CO)[C@@H](O)CC[C@]23C)C1=O | > 100 µM | 17.4 µM | > 100 µM | 43.6 µM | 11.4 µM | 11.5 µM
CC(C)C1=C[C@@]2(O)OO[C@@H]3CC(=O)[C@](C)(CO)[C@@H]4CCC(=C2[C@]43C)C1=O | > 100 µM | 17.7 µM | > 100 µM | 24.9 µM | > 100 µM | 10.7 µM
C=C1C(OC(C)=O)[C@]23[C@H](O)[C@H]1CC[C@H]2[C@]12CCCC(C)(C)[C@H]1[C@H](OC(C)=O)[C@@]3(O)OC2 (stereo not given in full) | 38.4 µM | 48.3 µM | > 100 µM | > 100 µM | 37.4 µM | 21.9 µM
CC(C)c1ccc2c(c1O)CC[C@H]1C3=C(CC[C@]21C)C(=O)OC3 [TRIPTOPHENOLIDE] | 17 µM | 22.2 µM | 22.4 µM | > 100 µM | > 100 µM | 42.9 µM
CO[C@@H]1OC[C@@]2(C)CCC[C@]13[C@@H]1CC[C@H]4C[C@@]1(CC[C@@H]23)C[C@@]4(C)O | > 100 µM | > 100 µM | > 100 µM | > 100 µM | > 100 µM | > 100 µM
C[C@@]1(O)C[C@@]23CC[C@H]4[C@@]5(CCC[C@]4(C)C(=O)OC5)[C@@H]2CC[C@H]1C3 [TRIPTERIFORDIN] | > 100 µM | > 100 µM | > 100 µM | > 100 µM | > 100 µM | > 100 µM
COc1c(C(C)C)cc(O)c2c1CC[C@H]1[C@@](C)(CO)C(=O)CC[C@]21C | 21.9 µM | 28.7 µM | > 100 µM | > 100 µM | 23.2 µM | 21.6 µM
C[C@]12C3=C4CC=C[C@@]3(O)OO[C@@H]1CC1=C(COC1=O)[C@@H]2CC4 | 10.9 µM | 18 µM | 8.11 µM | 20.2 µM | 23.3 µM | 11.3 µM
COc1c(C(C)C)cc(O)c2c1CC[C@H]1C(C)(C)C(=O)CC[C@]21C | 47.8 µM | 39.8 µM | > 100 µM | 29.3 µM | > 100 µM | > 100 µM
COc1c(C(C)C)cc(O)c2c1CCC1=C(C)C(=O)CC[C@@]12C | 5.1 µM | 18.2 µM | 7.93 µM | 8.62 µM | 5.73 µM | 17.4 µM
CC(C)c1ccc2c(c1O)CC[C@H]1C(C)(C)[C@@H](O)CC[C@]21C | 46.3 µM | > 100 µM | > 100 µM | > 100 µM | > 100 µM | > 100 µM
